Measured values from patent publication EP1137645B1, “ALPHA-METHYLBENZYL-CONTAINING THIOUREA INHIBITORS OF HERPES VIRUSES CONTAINING A […] GROUP” (Wyeth, priority 1998, dated 2000).
Converted amounts (≈) assume the structure as drawn. Read-outs that look alike come from different tables or passages of the source.

Assays:
[1] = tested on: HCMV recombinant mutant virus whose genome contains the prokaryotic beta-glucuronidase gene; assay: microbe, parasite or virus in culture; format: cell-based, human cytomegalovirus; settings: Human betaherpesvirus 5, Fibroblast
Procedure, shortened: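 Antiviral IC50 estimated from reduced reporter activity across compound amounts: lysates prepared 96 h after infection were tested with p-nitrophenyl- or methylumbelliferyl-glucuronide. Cells were human foreskin fibroblasts, infected alongside inhibitor with HCMV (e.g. RV145) expressing viral promoter-driven beta-glucuronidase.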

HSV- I = assay: HSV antiviral (ELISA) assay; format: cell-based; settings: read-out: IC50 (ug/ml) HSV
Procedure, shortened: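 IC50 from fluorescence versus untreated control in a cell ELISA: anti-glycoprotein D antibody, β-galactosidase-conjugated secondary, 4-methyl umbelliferone read at 365/450 nm. Vero cells (2% FBS DMEM) received compound 30 min pre-infection with HSV-1 at MOI 0.006, fixed ~24 h post-infection.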

VZV strain Ellen = assay: VZV antiviral (ELISA) assay; format: cell-based
Procedure, shortened: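 HFF cells infected with VZV Ellen at multiplicity below 0.1 overnight, then mixed infected/uninfected cells seeded with compound in DMEM/2% FBS and incubated three days at 37°C, 5% CO2.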

[2] = Human alphaherpesvirus 3, read-out: % inhibition 10 ug/ml VZV, 10 ug/ml, VZV strain Ellen, HFF cells, ELISA
[3] = Human alphaherpesvirus 3, VZV strain Ellen, HFF cells, ELISA, read-out: IC50 (ug/ml) VZV
[4] = read-out: IC50 ug/ml HCMV, HCMV, human foreskin fibroblasts
[5] = Human alphaherpesvirus 3, HFF, read-out: % inhibition 10 ug/ml VZV
[6] = Human alphaherpesvirus 3, HFF, read-out: IC50 (ug/ml) VZV
[7] = Human alphaherpesvirus 3, HFF, read-out: IC50 (ug/ml) VZV, VZV strain Ellen, HFF cells, ELISA

With `O=C(Nc1ccc(NC(=S)Nc2cc(C(F)(F)F)cc(C(F)(F)F)c2)cc1)c1ccccc1F` [Example 517, N-{4-[3-(3,5-Bis-trifluoromethyl-phenyl)-thioureido]-phenyl}-2-fluoro-benzamide] the IC50 ([1]; read-out: IC50 ug/ml HCMV) was 1.1 µg/mL (≈ 2.19 µM), the IC50 (HSV- I; HSV- I, Vero cells, ELISA) was over 10 µg/mL and the inhibition at 10 µg/mL (VZV strain Ellen; [2]) was 5%. For the same molecule, the IC50 (VZV strain Ellen; [3]) was over 10 µg/mL.
In the case of `Nc1c(Cl)cc(NC(=S)Nc2ccc(NC(=O)c3ccccc3F)cc2)cc1Cl` [Example 518, N-{4-[3-(4-Amino-3,5-dichloro-phenyl)-thioureido]-phenyl}-2-fluoro-benzamide], the IC50 [1, 4] is reported as 4 µg/mL (≈ 8.9 µM), the IC50 (HSV- I; HSV- I, Vero cells, ELISA) is reported as 0.25 µg/mL (≈ 0.556 µM) and the inhibition at 10 µg/mL (VZV strain Ellen; [5]) is reported as 32%. For the same molecule, the IC50 (VZV strain Ellen; [6]) was over 10 µg/mL.
`Nc1c(Br)cc(NC(=S)Nc2ccc(NC(=O)c3ccccc3F)cc2)cc1Br` [Example 519, N-{4-[3-(4-Amino-3,5-dibromo-phenyl)-thioureido]-phenyl}-2-fluoro-benzamide] was tested, and the IC50 ([1]; read-out: IC50 ug/ml HCMV) was 1.7 µg/mL (≈ 3.16 µM), the IC50 (HSV- I; HSV- I, Vero cells, ELISA) was 0.4 µg/mL (≈ 0.743 µM) and the inhibition at 10 µg/mL (VZV strain Ellen; [2]) was 18%. The IC50 (VZV strain Ellen; [3]) was over 10 µg/mL.
`CN(C)c1cc(Cl)cc(NC(=S)Nc2ccc(NC(=O)c3ccccc3F)cc2)c1` [Example 523, N-{4-[3-(3-Chloro-5-dimethylamino-phenyl)-thioureido]-phenyl}-2-fluoro-benzamide] showed an IC50 [1, 4] of 3.2 µg/mL (≈ 7.22 µM), an IC50 (HSV- I; HSV- I, Vero cells, ELISA) of 0.6 µg/mL (≈ 1.35 µM) and an inhibition at 10 µg/mL (VZV strain Ellen; [5]) of 75%. The IC50 (VZV strain Ellen; [6]) was 4 µg/mL (≈ 9.03 µM).
`O=C(Nc1ccc(NC(=S)Nc2ccc3[nH]nnc3c2)cc1)c1c(F)cccc1F` [Example 527, N-{4-[3-(1H-Benzotriazol-5-yl)-thioureido]-phenyl}-2,6-difluoro-benzamide] gave an IC50 ([1]; read-out: IC50 ug/ml HCMV) of over 10 µg/mL, an IC50 (HSV- I; HSV- I, Vero cells, ELISA) of over 10 µg/mL and an inhibition at 10 µg/mL (VZV strain Ellen; [2]) of 20%. For the same molecule, the IC50 (VZV strain Ellen; [3]) was over 10 µg/mL.
`O=C(Nc1ccc(NC(=S)Nc2cc(Br)cc(C(F)(F)F)c2)cc1)c1ccccc1F` [Example 531, N-{4-[3-(3-Bromo-5-trifluoromethyl-phenyl)-thioureido]-phenyl}-2-fluoro-benzamide] showed an IC50 [1, 4] of 5 µg/mL (≈ 9.76 µM), an IC50 (HSV- I; Vero) of over 10 µg/mL and an IC50 (VZV strain Ellen; [7]) of 6 µg/mL (≈ 11.7 µM).
For `O=C(Nc1ccc(NC(=S)NCc2ccccc2)cc1)c1ccccc1F` [Example 536, N-[4-(3-Benzyl-thioureido)-phenyl]-2-fluoro-benzamide], the IC50 ([1]; read-out: IC50 ug/ml HCMV) was over 10 µg/mL, the IC50 (HSV- I; HSV- I, Vero cells, ELISA) was over 10 µg/mL and the IC50 (VZV strain Ellen; [3]) was over 10 µg/mL.
With `O=C(Nc1ccc(NC(=S)NCc2ccc(Cl)c(Cl)c2)cc1)c1ccccc1F` [Example 538, N-{4-[3-(3,4-Dichloro-benzyl)-thioureido]-phenyl}-2-fluoro-benzamide] the IC50 [1, 4] was over 10 µg/mL, the IC50 (HSV- I; Vero) was over 10 µg/mL and the IC50 (VZV strain Ellen; [7]) was 10 µg/mL (≈ 22.3 µM).
`O=C(Nc1ccc(NC(=S)NCc2ccc3c(c2)OCO3)cc1)c1ccccc1F` [Example 540, N-[4-(3-Benzo[1,3]dioxol-5-ylmethyl-thioureido)-phenyl]-2-fluoro-benzamide] was tested, and the IC50 ([1]; read-out: IC50 ug/ml HCMV) was over 0.5 µg/mL, the IC50 (HSV- I; HSV- I, Vero cells, ELISA) was over 10 µg/mL and the IC50 (VZV strain Ellen; [3]) was over 10 µg/mL.
For `O=C(Nc1ccc(NC(=S)NCc2cc(C(F)(F)F)cc(C(F)(F)F)c2)cc1)c1ccccc1F` [Example 543, N-{4-[3-(3,5-Bis-trifluoromethyl-benzyl)-thioureido]-phenyl}-2-fluoro-benzamide], the IC50 ([1]; read-out: IC50 ug/ml HCMV) was 0.3 µg/mL (≈ 0.582 µM), the IC50 (HSV- I; HSV- I, Vero cells, ELISA) was over 10 µg/mL and the IC50 (VZV strain Ellen; [3]) was over 10 µg/mL.
For `O=C(Nc1ccc(NC(=S)Nc2ccc(OC(F)(F)F)c(Br)c2)cc1)c1ccccc1F` [Example 549, N-{4-[3-(3-Bromo-4-trifluoromethoxy-phenyl)-thioureido]-phenyl}-2-fluoro-benzamide], the IC50 [1, 4] was over 10 µg/mL, the IC50 (HSV- I; Vero) was over 10 µg/mL and the IC50 (VZV strain Ellen; [7]) was over 10 µg/mL.
Work on `O=C(Nc1ccc(NC(=S)NCCc2cccc(F)c2)cc1)c1ccccc1F` [Example 552, 2-Fluoro-N-(4-{3-[2-(3-fluoro-phenyl)-ethyl]-thioureido}-phenyl)-benzamide] yielded an IC50 ([1]; read-out: IC50 ug/ml HCMV) of over 0.5 µg/mL, an IC50 (HSV- I; HSV- I, Vero cells, ELISA) of over 10 µg/mL and an IC50 (VZV strain Ellen; [3]) of over 10 µg/mL.
`O=C(Nc1ccc(NC(=S)NCCc2ccc(F)cc2)cc1)c1ccccc1F` [Example 553, 2-Fluoro-N-(4-{3-[2-(4-fluoro-phenyl)-ethyl]-thioureido}-phenyl)-benzamide] showed an IC50 ([1]; read-out: IC50 ug/ml HCMV) of over 0.5 µg/mL, an IC50 (HSV- I; HSV- I, Vero cells, ELISA) of over 10 µg/mL and an IC50 (VZV strain Ellen; [3]) of 7 µg/mL (≈ 17 µM).
Work on `O=C(Nc1ccc(NC(=S)NCCc2cccc(Cl)c2)cc1)c1ccccc1F` [Example 563, N-(4-{3-[2-(3-Chloro-phenyl)-ethyl]-thioureido}-phenyl)-2-fluoro-benzamide] yielded an IC50 [1, 4] of over 0.5 µg/mL, an IC50 (HSV- I; Vero) of over 10 µg/mL and an IC50 (VZV strain Ellen; [7]) of 9 µg/mL (≈ 21 µM).
Work on `CC(NC(=S)Nc1ccc(NC(=O)c2ccccc2F)cc1)c1ccccc1` (centres unmarked) [Example 589, 2-Fluoro-N-{4-[3-(1-phenyl-ethyl)-thioureido]-phenyl}-benzamide] yielded an IC50 ([1]; read-out: IC50 ug/ml HCMV) of 7 µg/mL (≈ 17.8 µM), an IC50 (HSV- I; HSV- I, Vero cells, ELISA) of over 10 µg/mL and an IC50 (VZV strain Ellen; [3]) of 0.36 µg/mL (≈ 0.915 µM).
